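Method: 48-hour compound exposure of cells in 96-well plates, five concentrations, linear interpolation of endpoints. Definition used: TGI = concentration required for complete inhibition of growth.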
How the values were obtained:
Test in all cases: DTP human tumour cell line panel, 48 h
NCI/ADR-RES ovarian = system: NCI/ADR-RES ovarian
786-0 renal = system: 786-0 renal
MALME-3M melanoma = system: MALME-3M melanoma
MDA-MB-231 breast = system: MDA-MB-231 breast
SNB-75 CNS = system: SNB-75 CNS
MDA-MB-435 = system: MDA-MB-435
HOP-62 NSCLC = system: HOP-62 NSCLC
BT-549 breast = system: BT-549 breast
CCRF-CEM leukemia = system: CCRF-CEM leukemia
TK-10 renal = system: TK-10 renal
KM12 colon = system: KM12 colon
HCT-116 colon = system: HCT-116 colon
NCI-H522 lung = system: NCI-H522 lung
OVCAR-4 ovarian = system: OVCAR-4 ovarian
PC-3 prostate = system: PC-3 prostate
HCC-2998 colon = system: HCC-2998 colon
SF-268 CNS = system: SF-268 CNS
SF-539 CNS = system: SF-539 CNS
SK-MEL-5 melanoma = system: SK-MEL-5 melanoma
MCF7 breast = system: MCF7 breast

Row | Structure (SMILES) | TGI (NCI/ADR-RES ovarian) [µM] | TGI (786-0 renal) [µM] | TGI (MALME-3M melanoma) [µM] | TGI (MDA-MB-231 breast) [µM] | TGI (SNB-75 CNS) [µM] | TGI (MDA-MB-435) [µM] | TGI (HOP-62 NSCLC) [µM] | TGI (BT-549 breast) [µM] | TGI (CCRF-CEM leukemia) [µM] | TGI (TK-10 renal) [µM] | TGI (KM12 colon) [µM] | TGI (HCT-116 colon) [µM] | TGI (NCI-H522 lung) [µM] | TGI (OVCAR-4 ovarian) [µM] | TGI (PC-3 prostate) [µM] | TGI (HCC-2998 colon) [µM] | TGI (SF-268 CNS) [µM] | TGI (SF-539 CNS) [µM] | TGI (SK-MEL-5 melanoma) [µM] | TGI (MCF7 breast) [µM]
1 | CCCCN1C(=O)c2c(Br)sc(Br)c2C1=O | 88.2 | > 100 | > 100 | > 100 | 90.5 | > 100 | > 100 | > 100 | > 100 | > 100 | 87.5 | 65.6 | > 100 | 91.1 | > 100 | > 100 | > 100 | 69.1 | > 100 | > 100
2 | O=C(NCCCNCCN1C(=O)c2cccc3cc([N+](=O)[O-])cc(c23)C1=O)c1cc(-c2ccccc2)nc2ccccc12 | 17.3 | 9.04 | 3.24 | 8.17 | 14.1 | 2.91 | 20.5 | 20.2 | 22.2 | 21.8 | 18.6 | 16.8 | 9.95 | 15.1 | 16.7 | 3.05 | 15.9 | 5.07 | 5.97 | 6.51
3 | Cc1cc2nc(C=C(C(F)(F)F)C(F)(F)F)sc2cc1C | 14.6 | 5.17 | 4.56 | 23.9 | 10.3 | 7.07 | 7.59 | 4.64 | > 100 | 5.91 | 4.41 | 2.93 | 1.01 | 14.9 | 4.98 | 8.36 | 11.3 | 4.31 | 8.77 | 12.5
4 | COc1ccc2c(C)c(Oc3c(Cl)c(Cl)c(O)c(C#N)c3C#N)oc2c1 | > 100 | > 100 | > 100 | > 100 | > 100 | > 100 | > 100 | > 100 | > 100 | > 100 | > 100 | > 100 | > 100 | > 100 | > 100 | > 100 | > 100 | > 100 | > 100 | > 100
5 | COC(=O)c1ccccc1CC1Cc2cc3c(cc2C1=O)CCC3 (stereo not given) | 21.8 | 89.3 | 69.2 | 80.2 | 55.7 | 10.7 | > 94.4 | 31.8 | 62.7 | 79.7 | > 100 | 29.9 | 27.1 | > 93.3 | > 100 | > 100 | > 100 | 43.1 | 20.9 | 65.3
6 | O=C1OC(C2Cc3ccc4c(c3C2=O)CCC4)c2ccccc21 (stereo not given) | > 100 | > 100 | > 100 | > 100 | > 100 | > 100 | > 100 | > 100 | > 100 | > 100 | > 100 | > 100 | > 100 | > 100 | > 100 | > 100 | > 100 | > 100 | > 100 | > 100
7 | O=C1CSC(c2ccccc2)N1c1ccc(-n2c(-c3ccccc3)nc3ccccc3c2=O)cc1 (stereo not given) | > 100 | > 100 | > 100 | > 100 | > 100 | > 100 | > 100 | > 100 | > 100 | > 100 | > 100 | > 100 | > 100 | > 100 | > 100 | > 100 | > 100 | > 100 | > 100 | > 100
8 | O=C1C2CCCCC2C(=O)N1n1c(-c2ccccc2)n[nH]c1=O (stereo not given) | > 100 | > 100 | > 100 | > 100 | > 100 | > 100 | > 100 | > 100 | > 100 | > 100 | > 100 | > 100 | > 100 | > 100 | > 100 | > 100 | > 100 | > 100 | > 100 | > 100

Source: PubChem BioAssay (NCI)
